Test results reported in ChEMBL document CHEMBL4699558, “Lead optimization of 8-(methylamino)-2-oxo-1,2-dihydroquinolines as bacterial type II topoisomerase inhibitors” (Bioorg Med Chem, 2020).
Converted amounts (≈) assume the structure as drawn.

What was measured:
Staphylococcus aureus [1] = experiment: Antibacterial activity against Methicillin-resistant Staphylococcus aureus by CLSI method; type: functional
Enterococcus = experiment: Antibacterial activity against Vancomycin-resistant Enterococcus by CLSI method; type: functional
DNA gyrase = DNA gyrase (Escherichia coli, UniProt P0AES4+P0AES6); experiment: Inhibition of Escherichia coli DNA gyrase by measuring supercoiling activity incubated for 60 mins by fluorescence based assay; type: protein-complex assay
Staphylococcus aureus [2] = experiment: Antibacterial activity against Staphylococcus aureus ATCC 29213 by CLSI method; type: functional
Escherichia coli [3] = experiment: Antibacterial activity against Escherichia coli ATCC 25922 in presence of PAbetaN by CLSI method; type: functional
Escherichia coli [4] = experiment: Antibacterial activity against Escherichia coli ATCC 25922 by CLSI method; type: functional
Streptococcus pneumoniae [5] = experiment: Antibacterial activity against genotype penicillin-resistant Streptococcus pneumoniae by CLSI method; type: functional
Streptococcus pneumoniae [6] = experiment: Antibacterial activity against Streptococcus pneumoniae ATCC 49619 by CLSI method; type: functional
Enterococcus faecium = experiment: Antibacterial activity against vancomycin-resistant Enterococcus faecium ATCC 51559 by CLSI method; type: functional
Streptococcus anginosus = experiment: Antibacterial activity against Streptococcus anginosus ATCC 33397 by CLSI method; type: functional
Enterococcus faecalis [7] = experiment: Antibacterial activity against Enterococcus faecalis ATCC 29212 by CLSI method; type: functional
Enterococcus faecalis [8] = experiment: Antibacterial activity against vancomycin-resistant Enterococcus faecalis ATCC 51575 by CLSI method; type: functional
[9] = Inhibition of Escherichia coli topoisomerase IV by measuring relaxation activity incubated for 30 mins by fluorescence based assay

Compound | IC50 (DNA gyrase) [nM] | MIC (Staphylococcus aureus [2]) [µg/mL] | MIC (Escherichia coli [3]) [µg/mL] | MIC (Escherichia coli [4]) [µg/mL] | other results
CCCCCCCCCC(=O)N[C@@H](Cc1c[nH]c2ccccc12)C(=O)N[C@H](CC(N)=O)C(=O)N[C@@H](CC(=O)O)C(=O)N[C@@H]1C(=O)NCC(=O)N[C@@H](CCCN)C(=O)N[C@@H](CC(=O)O)C(=O)N[C@H](C)C(=O)N[C@@H](CC(=O)O)C(=O)NCC(=O)N[C@H](CO)C(=O)N[C@@H]([C@H](C)CC(=O)O)C(=O)N[C@@H](CC(=O)c2ccccc2N)C(=O)O[C@@H]1C | – | – | – | – | MIC50 (Staphylococcus aureus [1]): 1 µg/mL (≈ 0.617 µM); MIC90 (Staphylococcus aureus [1]): 1 µg/mL (≈ 0.617 µM); MIC50 (Enterococcus): 2 µg/mL (≈ 1.23 µM); MIC90 (Enterococcus): 4 µg/mL (≈ 2.47 µM)
CNc1cc(F)cc2cc(C(=O)Nc3ccc(C(=O)O)cc3CNC3CCCCC3)c(=O)[nH]c12.O=C(O)C(F)(F)F | 0.26 | 16 | 0.5 | 32 | –
CNc1cc(F)cc2c(NCC3CCNCC3)c(C(=O)Nc3ccc(C(=O)O)cc3)c(=O)[nH]c12.O=CO | 1.31 | > 32 | 0.5 | > 32 | –
CNc1cc(F)cc2cc(C(=O)Nc3ccc(C(=O)O)cc3CNCCO)c(=O)[nH]c12.Cl | 129 | > 64 | 2 | > 64 | –
C[C@@H](O)[C@H]1C(=O)N2C(C(=O)O)=C(S[C@@H]3CN[C@H](C(=O)N(C)C)C3)[C@H](C)[C@H]12 [MEROPENEM] | – | – | – | – | MIC50 (Streptococcus pneumoniae [5]): 0.5 µg/mL (≈ 1.3 µM); MIC90 (Streptococcus pneumoniae [5]): 1 µg/mL (≈ 2.61 µM)
CNc1cc(F)cc2cc(C(=O)Nc3ccc(C(=O)O)cc3CN(CCN)C3CCCCC3)c(=O)[nH]c12.O=C(O)C(F)(F)F | 3.68 | > 64 | 16 | > 64 | –
CN[C@H](CC(C)C)C(=O)N[C@H]1C(=O)N[C@@H](CC(N)=O)C(=O)N[C@H]2C(=O)N[C@H]3C(=O)N[C@H](C(=O)N[C@H](C(=O)O)c4cc(O)cc(O)c4-c4cc3ccc4O)[C@H](O)c3ccc(c(Cl)c3)Oc3cc2cc(c3O[C@@H]2O[C@H](CO)[C@@H](O)[C@H](O)[C@H]2O[C@H]2C[C@](C)(N)[C@H](O)[C@H](C)O2)Oc2ccc(cc2Cl)[C@H]1O [VANCOMYCIN] | – | – | – | > 128 | MIC (Streptococcus pneumoniae [6]): 0.25 µg/mL (≈ 0.173 µM); MIC (Enterococcus faecium): > 128 µg/mL; MIC (Streptococcus anginosus): 0.5 µg/mL (≈ 0.345 µM); MIC50 (Staphylococcus aureus [1]): 1 µg/mL (≈ 0.69 µM); MIC90 (Staphylococcus aureus [1]): 2 µg/mL (≈ 1.38 µM); MIC50 (Streptococcus pneumoniae [5]): 0.25 µg/mL (≈ 0.173 µM); MIC90 (Streptococcus pneumoniae [5]): 0.5 µg/mL (≈ 0.345 µM); MIC (Enterococcus faecalis [7]): 2 µg/mL (≈ 1.38 µM); MIC50 (Enterococcus): > 128 µg/mL; MIC90 (Enterococcus): > 128 µg/mL; MIC (Enterococcus faecalis [8]): > 128 µg/mL
CNCCCc1c(C(=O)Nc2ccc(C(=O)O)cc2)c(=O)[nH]c2c(NC)cc(F)cc12.O=C(O)C(F)(F)F | 131 | – | > 32 | > 32 | –
CC[C@H]1OC(=O)[C@H](C)[C@@H](O[C@H]2C[C@@](C)(OC)[C@@H](O)[C@H](C)O2)[C@H](C)[C@@H](O[C@@H]2O[C@H](C)C[C@H](N(C)C)[C@H]2O)[C@](C)(O)C[C@@H](C)CN(C)[C@H](C)[C@@H](O)[C@]1(C)O [AZITHROMYCIN] | – | – | – | – | MIC50 (Streptococcus pneumoniae [5]): > 128 µg/mL; MIC90 (Streptococcus pneumoniae [5]): > 128 µg/mL
CNc1cc(F)cc2cc(C(=O)Nc3ccc(C(=O)NCCN4CCOCC4)cc3)c(=O)[nH]c12 | 7.29 | > 16 | 0.06 | 4 (≈ 8.56 µM) | IC50 [9]: 1300 nM
CNc1cc(F)cc2cc(C(=O)Nc3ccc(C(=O)O)cc3CN(CC(=O)O)C3CCCCC3)c(=O)[nH]c12 | 0.57 | 32 (≈ 61 µM) | 0.12 | > 64 | IC50 [9]: 76.3 nM
CC1(C)S[C@@H]2[C@H](NC(=O)Cc3ccccc3)C(=O)N2[C@H]1C(=O)O [PENICILLIN G] | – | – | – | – | MIC50 (Streptococcus pneumoniae [5]): 2 µg/mL (≈ 5.98 µM); MIC90 (Streptococcus pneumoniae [5]): 4 µg/mL (≈ 12 µM)
CNc1cc(F)cc2c(NCCCN)c(C(=O)Nc3ccc(C(=O)O)cc3)c(=O)[nH]c12.O=CO | 0.52 | > 8 | 2 | > 8 | –
CNc1cc(F)cc2c(NCC3CNC3)c(C(=O)Nc3ccc(C(=O)O)cc3)c(=O)[nH]c12.O=CO | 0.66 | > 16 | – | > 16 | –
CNc1cc(F)cc2cc(C(=O)Nc3ccc(C(=O)NCCN)cc3)c(=O)[nH]c12.Cl | 9.4 | > 8 | > 8 | > 8 | –
CNc1cc(F)cc2cc(C(=O)Nc3ccc(C(=O)O)cc3CN(C)C3CC3)c(=O)[nH]c12 | 0.6 | > 8 | ≤ 0.03 | > 8 | IC50 [9]: 771 nM
CNc1cc(F)cc2cc(C(=O)Nc3ccc(C(=O)N(C)CCN4CCOCC4)cc3)c(=O)[nH]c12 | 6.36 | 16 (≈ 33.2 µM) | 0.12 | > 16 | –

Compound | IC50 (DNA gyrase) [nM] | MIC (Staphylococcus aureus [2]) [µg/mL] | MIC (Escherichia coli [3]) [µg/mL] | MIC (Escherichia coli [4]) [µg/mL] | other results
CNc1cc(F)cc2c(NCCN3CCOCC3)c(C(=O)Nc3ccc(C(=O)O)cc3)c(=O)[nH]c12.O=CO | 14.6 | 32 | 0.12 | > 64 | –
CNc1cc(F)cc2c(O)c(C(=O)Nc3ccc(C(=O)NS(=O)(=O)N(C)C)cc3CN3CCCCC3)c(=O)[nH]c12 | 4.44 | – | 0.06 | 64 (≈ 111 µM) | –
CNc1cc(F)cc2c(N[C@H]3C[C@@H](N)C3)c(C(=O)Nc3ccc(C(=O)O)cc3)c(=O)[nH]c12.O=CO | 2.66 | > 32 | 1 | > 32 | –
CNc1cc(F)cc2c(NCCN)c(C(=O)Nc3ccc(C(=O)O)cc3)c(=O)[nH]c12.O=CO | 0.94 | > 16 | 4 | > 16 | –
CNc1cc(F)cc2c(NCC3(N)CCC3)c(C(=O)Nc3ccc(C(=O)O)cc3)c(=O)[nH]c12.O=CO | 2.15 | > 32 | 0.25 | > 32 | –
CNc1cc(F)cc2cc(C(=O)Nc3ccc(C(=O)O)c(O)c3)c(=O)[nH]c12 | 2.05 | > 32 | 1 | > 32 | –
CNc1cc(F)cc2cc(C(=O)Nc3ccc(CO)cc3CN(C)C3CCCCC3)c(=O)[nH]c12 | 1.92 | 4 (≈ 8.57 µM) | 0.06 | 16 (≈ 34.3 µM) | –
CNCCNc1c(C(=O)Nc2ccc(C(=O)O)cc2)c(=O)[nH]c2c(NC)cc(F)cc12.O=CO | 2.09 | > 16 | 8 | > 16 | –
C[C@H]1COc2c(N3CCN(C)CC3)c(F)cc3c(=O)c(C(=O)O)cn1c23.C[C@H]1COc2c(N3CCN(C)CC3)c(F)cc3c(=O)c(C(=O)O)cn1c23.O [LEVOFLOXACIN] | – | – | – | – | MIC50 (Staphylococcus aureus [1]): 16 µg/mL; MIC90 (Staphylococcus aureus [1]): > 128 µg/mL; MIC50 (Streptococcus pneumoniae [5]): 2 µg/mL; MIC90 (Streptococcus pneumoniae [5]): 2 µg/mL; MIC50 (Enterococcus): 8 µg/mL; MIC90 (Enterococcus): 128 µg/mL
CNc1cc(F)cc2cc(C(=O)Nc3ccc(C(=O)O)cc3CN(C)C3CCCCC3)c(=O)[nH]c12.Cl | 0.53 | 2 | ≤ 0.03 | 8 | IC50 [9]: 47.4 nM
CCCCCN(C)Cc1cc(C(=O)O)ccc1NC(=O)c1cc2cc(F)cc(NC)c2[nH]c1=O | 0.21 | 0.5 (≈ 1.07 µM) | ≤ 0.03 | 4 (≈ 8.54 µM) | IC50 [9]: 41.4 nM
CC(=O)NC[C@H]1CN(c2ccc(N3CCOCC3)c(F)c2)C(=O)O1 [LINEZOLID] | – | – | – | – | MIC50 (Staphylococcus aureus [1]): 4 µg/mL (≈ 11.9 µM); MIC90 (Staphylococcus aureus [1]): 4 µg/mL (≈ 11.9 µM); MIC50 (Enterococcus): 4 µg/mL (≈ 11.9 µM); MIC90 (Enterococcus): 4 µg/mL (≈ 11.9 µM)
Cc1onc(-c2ccccc2)c1C(=O)N[C@@H]1C(=O)N2[C@@H]1SC(C)(C)[C@@H]2C(=O)O [OXACILLIN] | – | – | – | – | MIC50 (Staphylococcus aureus [1]): > 128 µg/mL; MIC90 (Staphylococcus aureus [1]): > 128 µg/mL
CNCCc1c(C(=O)Nc2ccc(C(=O)O)cc2)c(=O)[nH]c2c(NC)cc(F)cc12.O=C(O)C(F)(F)F | 109 | > 8 | > 8 | > 8 | –
CNc1cc(F)cc2cc(C(=O)Nc3ccc(C(N)=O)cc3CN(C)C3CCCCC3)c(=O)[nH]c12 | 2.48 | > 32 | ≤ 0.03 | > 32 | –
CNc1cc(F)cc2cc(C(=O)Nc3cnc(C(=O)O)nc3)c(=O)[nH]c12 | 0.95 | > 16 | > 16 | > 16 | IC50 [9]: 32.5 nM
